Source: a compilation of properties of binary mixtures (doi:10.1016/j.molliq.2022.118955)

Experiment: xn = mol fraction of the nth substance listed
Conditions: 298.15 K, 100 kPa

CCCC[n+]1ccn(C)c1.[I-] + CCO
electrical conductivity (x1 = 0.0198): 0.493 S/m | electrical conductivity (x1 = 0.0392): 0.821 S/m | electrical conductivity (x1 = 0.0676): 1.2 S/m | electrical conductivity (x1 = 0.148): 1.69 S/m | electrical conductivity (x1 = 0.2876): 1.53 S/m | electrical conductivity (x1 = 0.4094): 1.1 S/m | electrical conductivity (x1 = 1): 0.0522 S/m

CC[n+]1ccn(C)c1.[I-] + CCO
electrical conductivity (x1 = 0.0104): 0.33 S/m | electrical conductivity (x1 = 0.0208): 0.581 S/m | electrical conductivity (x1 = 0.0477): 1.15 S/m | electrical conductivity (x1 = 0.0766): 1.62 S/m | electrical conductivity (x1 = 0.1141): 2.09 S/m | electrical conductivity (x1 = 0.1621): 2.51 S/m | electrical conductivity (x1 = 0.2282): 2.75 S/m | electrical conductivity (x1 = 0.3112): 2.76 S/m

CCO + CC[n+]1ccn(C)c1.[I-]
electrical conductivity (x2 = 0): 0.0001 S/m
